In PubChem BioAssay (NCI):
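GI50 is the concentration that inhibits growth by half. Definition used: TGI = concentration required for complete inhibition of growth.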

How the values were obtained:
Assay in all cases: NCI-60 cell line screen, 384-well format
786-0 renal = tested on: 786-0 renal
A498 renal = tested on: A498 renal
A549 NSCLC = tested on: A549 NSCLC
ACHN renal = tested on: ACHN renal
BT-549 breast = tested on: BT-549 breast
CAKI-1 renal = tested on: CAKI-1 renal
COLO 205 colon = tested on: COLO 205 colon
DU-145 prostate = tested on: DU-145 prostate
EKVX NSCLC = tested on: EKVX NSCLC
HCT-116 colon = tested on: HCT-116 colon
HCT-15 colon = tested on: HCT-15 colon
HL-60(TB) leukemia = tested on: HL-60(TB) leukemia
HOP-62 NSCLC = tested on: HOP-62 NSCLC
HOP-92 NSCLC = tested on: HOP-92 NSCLC
HS 578T breast = tested on: HS 578T breast
HT29 colon = tested on: HT29 colon
IGROV1 ovarian = tested on: IGROV1 ovarian
K-562 leukemia = tested on: K-562 leukemia
KM12 colon = tested on: KM12 colon
M14 melanoma = tested on: M14 melanoma
MALME-3M melanoma = tested on: MALME-3M melanoma
MCF7 breast = tested on: MCF7 breast
MDA-MB-231 breast = tested on: MDA-MB-231 breast
MDA-MB-435 melanoma = tested on: MDA-MB-435 melanoma
MDA-MB-468 breast = tested on: MDA-MB-468 breast
MOLT-4 leukemia = tested on: MOLT-4 leukemia
NCI-H226 lung = tested on: NCI-H226 lung
NCI-H23 lung = tested on: NCI-H23 lung
NCI-H322M lung = tested on: NCI-H322M lung
NCI-H460 NSCLC = tested on: NCI-H460 NSCLC
NCI-H522 lung = tested on: NCI-H522 lung
OVCAR-3 ovarian = tested on: OVCAR-3 ovarian
OVCAR-4 ovarian = tested on: OVCAR-4 ovarian
OVCAR-5 ovarian = tested on: OVCAR-5 ovarian
OVCAR-8 ovarian = tested on: OVCAR-8 ovarian
PC-3 prostate = tested on: PC-3 prostate
RXF 393 renal = tested on: RXF 393 renal
SF-268 CNS = tested on: SF-268 CNS
SF-295 CNS = tested on: SF-295 CNS
SF-539 CNS = tested on: SF-539 CNS
SK-MEL-2 melanoma = tested on: SK-MEL-2 melanoma
SK-MEL-28 melanoma = tested on: SK-MEL-28 melanoma
SK-MEL-5 melanoma = tested on: SK-MEL-5 melanoma
SK-OV-3 ovarian = tested on: SK-OV-3 ovarian
SN12C renal = tested on: SN12C renal
SNB-19 CNS = tested on: SNB-19 CNS
SNB-75 CNS = tested on: SNB-75 CNS
SR leukemia = tested on: SR leukemia
SW-620 colon = tested on: SW-620 colon
T-47D breast = tested on: T-47D breast
TK-10 renal = tested on: TK-10 renal
U251 glioblastoma = tested on: U251 glioblastoma
UACC-257 melanoma = tested on: UACC-257 melanoma
UACC-62 melanoma = tested on: UACC-62 melanoma
UO-31 renal = tested on: UO-31 renal

Work on COC1CCC(n2c([C@@H]3CCCC(=O)N3c3ccc(F)c(F)c3)nc3cc(-c4c(C)noc4C)ccc32)CC1 (stereo not given in full) yielded a GI50 ([…]-0 renal) of 2.1 µM, a TGI (786-0 renal) of 19.9 µM and a GI50 (A498 renal) of 6.19 µM. It also gave a TGI (A498 renal) of 19.4 µM, a GI50 (A549 NSCLC) of 8.03 µM and a TGI (A549 NSCLC) of 23.5 µM. For the same compound, the GI50 (ACHN renal) was 3.62 µM, the TGI (ACHN renal) was 16.6 µM and the GI50 (BT-549 breast) was 2.27 µM. It also gave a TGI (BT-549 breast) of 15.5 µM, a GI50 (CAKI-1 renal) of 0.532 µM and a TGI (CAKI-1 renal) of 13.2 µM. For the same compound, the GI50 (COLO 205 colon) was 3.44 µM, the TGI (COLO 205 colon) was 18.9 µM and the GI50 (DU-145 prostate) was 12.8 µM. For the same compound, the TGI (DU-145 prostate) was 60.4 µM, the GI50 (EKVX NSCLC) was 15.6 µM and the TGI (EKVX NSCLC) was 43.2 µM. The GI50 (HCT-116 colon) was 4.48 µM, the TGI (HCT-116 colon) was 18.4 µM and the GI50 (HCT-15 colon) was 2.95 µM. For the same compound, the TGI (HCT-15 colon) was 14.8 µM, the GI50 (HL-60(TB) leukemia) was 0.0497 µM and the TGI (HL-60(TB) leukemia) was 1.2 µM. The GI50 (HOP-62 NSCLC) was 2.92 µM, the TGI (HOP-62 NSCLC) was 15.4 µM and the GI50 (HOP-92 NSCLC) was 4.57 µM. It also gave a TGI (HOP-92 NSCLC) of 18.8 µM, a GI50 (HS 578T breast) of 0.716 µM and a TGI (HS 578T breast) of 14.2 µM. It also gave a GI50 (HT29 colon) of 1.6 µM, a TGI (HT29 colon) of 13.7 µM and a GI50 (IGROV1 ovarian) of 3.36 µM. It also gave a TGI (IGROV1 ovarian) of 15.5 µM, a GI50 (K-562 leukemia) of 1.51 µM and a TGI (K-562 leukemia) of 16.1 µM. It also gave a GI50 (KM12 colon) of 13.6 µM, a TGI (KM12 colon) of 28.3 µM and a GI50 (M14 melanoma) of 0.568 µM. The TGI (M14 melanoma) was 14.9 µM, the GI50 (MALME-3M melanoma) was 1.04 µM and the TGI (MALME-3M melanoma) was 6.35 µM. For the same compound, the GI50 (MCF7 breast) was 0.0402 µM, the TGI (MCF7 breast) was 12.4 µM and the GI50 (MDA-MB-231 breast) was 3.05 µM. The TGI (MDA-MB-231 breast) was 16.2 µM, the GI50 (MDA-MB-435 melanoma) was 7.03 µM and the TGI (MDA-MB-435 melanoma) was 23.9 µM. For the same compound, the GI50 (MDA-MB-468 breast) was 2.94 µM, the TGI (MDA-MB-468 breast) was 18.6 µM and the GI50 (MOLT-4 leukemia) was 2.05 µM. The TGI (MOLT-4 leukemia) was 14 µM, the GI50 (NCI-H226 lung) was 1.07 µM and the TGI (NCI-H226 lung) was 12.1 µM. For the same compound, the GI50 (NCI-H23 lung) was 10.2 µM, the TGI (NCI-H23 lung) was 25.1 µM and the GI50 (NCI-H322M lung) was 3.02 µM. For the same compound, the TGI (NCI-H322M lung) was 15.6 µM, the GI50 (NCI-H460 NSCLC) was 3.29 µM and the TGI (NCI-H460 NSCLC) was 16.8 µM. The GI50 (NCI-H522 lung) was 1.38 µM, the TGI (NCI-H522 lung) was 12.2 µM and the GI50 (OVCAR-3 ovarian) was 2.9 µM. It also gave a TGI (OVCAR-3 ovarian) of 16.1 µM, a GI50 (OVCAR-4 ovarian) of 1.79 µM and a TGI (OVCAR-4 ovarian) of 7.76 µM. The GI50 (OVCAR-5 ovarian) was 11.3 µM, the TGI (OVCAR-5 ovarian) was 58.7 µM and the GI50 (OVCAR-8 ovarian) was 2.8 µM. For the same compound, the TGI (OVCAR-8 ovarian) was 15.8 µM, the GI50 (PC-3 prostate) was 3.97 µM and the TGI (PC-3 prostate) was 19.5 µM. For the same compound, the GI50 (RXF 393 renal) was 1.24 µM, the TGI (RXF 393 renal) was 5.22 µM and the GI50 (SF-268 CNS) was 11.9 µM. For the same compound, the TGI (SF-268 CNS) was 25.6 µM, the GI50 (SF-295 CNS) was 5.05 µM and the TGI (SF-295 CNS) was 20 µM. For the same compound, the GI50 (SF-539 CNS) was 5.76 µM, the TGI (SF-539 CNS) was 19 µM and the GI50 (SK-MEL-2 melanoma) was 4.46 µM. For the same compound, the TGI (SK-MEL-2 melanoma) was 18.4 µM, the GI50 (SK-MEL-28 melanoma) was 7.88 µM and the TGI (SK-MEL-28 melanoma) was 21.6 µM. For the same compound, the GI50 (SK-MEL-5 melanoma) was 0.489 µM, the TGI (SK-MEL-5 melanoma) was 8.77 µM and the GI50 (SK-OV-3 ovarian) was 3.96 µM. It also gave a TGI (SK-OV-3 ovarian) of 16.2 µM, a GI50 (SN12C renal) of 12 µM and a TGI (SN12C renal) of 25.4 µM. The GI50 (SNB-19 CNS) was 11.5 µM, the TGI (SNB-19 CNS) was 27.6 µM and the GI50 (SNB-75 CNS) was 12.3 µM. For the same compound, the TGI (SNB-75 CNS) was 26 µM, the GI50 (SR leukemia) was 1.22 µM and the TGI (SR leukemia) was 13.8 µM. The GI50 (SW-620 colon) was 13.9 µM, the TGI (SW-620 colon) was 27.5 µM and the GI50 (T-47D breast) was 1.87 µM. For the same compound, the TGI (T-47D breast) was 7.11 µM, the GI50 (TK-10 renal) was 1.55 µM and the TGI (TK-10 renal) was 11.8 µM. It also gave a GI50 (U251 glioblastoma) of 12 µM, a TGI (U251 glioblastoma) of 25.9 µM and a GI50 (UACC-257 melanoma) of 3.1 µM. It also gave a TGI (UACC-257 melanoma) of 17.4 µM, a GI50 (UACC-62 melanoma) of 0.385 µM and a TGI (UACC-62 melanoma) of 12.1 µM. The GI50 (UO-31 renal) was 2.13 µM and the TGI (UO-31 renal) was 13.8 µM.
